The values below are quoted from earlier work in patent US20230218627A1, “PRESERVATIVE FREE PHARMACEUTICAL COMPOSITION FOR OPHTHALMIC ADMINISTRATION COMPRISING BRIMONIDINE” (PHARMATHEN S.A., priority 2020, published 2023).

Series [1] has as its system alpha-2 adrenergic receptor.

On to `CC(C)(C)NC[C@H](O)COc1nsnc1N1CCOCC1.O=C(O)/C=C\C(=O)O` [Timolol maleate, (2S)-1-[(1,1-Dimethylethyl)amino]-3-[[4-(morpholin-4-yl)-1,2,5-thiadiazol-3-yl]oxy]propan-2-ol (Z)-butenedioate], for which, under “ethanol”, the solubility in ethanol result is given as “soluble”. Where the note is “water”, the solubility in water result is recorded as “soluble”.
Take `Brc1c(NC2=NCCN2)ccc2nccnc12` [Brimonidine]: the “selectivity for the alpha-2 adrenergic receptor than the alpha-1 adrenergic receptor” value in series [1] is 1000 fold.
